Reference: patent US6010854A, “Autoantibodies to neurotransmitter receptors” (University of Utah Research Foundation, priority 1997, dated 2000)

Experiments:
Format in all cases: cell-based
[1] = system: anti-GluR3 antibody-evoked currents, mouse cortical neurons in culture; test: Block of anti-GluR3 antibody-evoked whole cell currents; conditions: for blockage of anti-GluR3 antibody-evoked currents: CNQX 40 μM, MK-801 10 μM, peptides 0.5 mg/ml incubated with serum or IgG for 15 minutes
[2] = system: glutamate receptors, fetal mouse cortical neurons in culture; test: Whole cell currents evoked in voltage-clamped neurons in culture; conditions: 100 μM NMDA with 1 μM glycine, -75 mV, 1 mM MgCl2
Method: To examine functional consequences of antibody binding to glutamate receptors, electrophysiological methods were used to record whole cell currents from mouse cortical neurons in culture. Neuronal cultures from fetal (E14-16) mouse cortical and hippocampal structures were prepared on poly-L-lysine-coated 35 mm "FALCON" dishes according to G. Skeen et al., 44 Molec. Pharmacol. 443 (1993), hereby incorporated by reference. Cultures were fed every other day using a growth medium consisting of DMEM, 10% horse serum, 30 mM glucose, and 0.5 mM glutamine. Arabinosylcytosine (ARA-C) was added for 1 day during the first week in culture to suppress growth of non-neuronal cells. Electrophysiological experiments were performed on 2-5 week old cultures at room temperature. External solution consisted of 145 mM NaCl, 1.5 mM KCl, 1 mM CaCl2, 1 mM MgCl2, 10 mM Na-HEPES, 10 mM glucose, 30 mM sucrose at pH 7.4, 320 mOsm. Internal solution consisted of 153 mM CsCl, 10 mM Cs-HEPES, 4 mM MgCl2, 5 mM EGTA at pH 7.35, 300 mOsm. Solutions were designed for measurement of predominantly sodium inward currents and to block NMDA receptor currents when neurons are voltage clamped at -75 mV. […]
Currently, the composition of native GluR's and GABAR's is unknown and the potential diversity of native receptors is immense. […] Five cells are recorded for each paradigm and antibody. […]

[3] = system: currents evoked by serum from a Rasmussen's encephalitis patient, fetal mouse cortical neurons; test: Block of whole cell currents evoked by serum from a Rasmussen's encephalitis patient
Method: To examine functional consequences of antibody binding to glutamate receptors, electrophysiological methods were used to record whole cell currents from mouse cortical neurons in culture. Neuronal cultures from fetal (E14-16) mouse cortical and hippocampal structures were prepared on poly-L-lysine-coated 35 mm "FALCON" dishes according to G. Skeen et al., 44 Molec. Pharmacol. 443 (1993), hereby incorporated by reference. Cultures were fed every other day using a growth medium consisting of DMEM, 10% horse serum, 30 mM glucose, and 0.5 mM glutamine. Arabinosylcytosine (ARA-C) was added for 1 day during the first week in culture to suppress growth of non-neuronal cells. Electrophysiological experiments were performed on 2-5 week old cultures at room temperature. External solution consisted of 145 mM NaCl, 1.5 mM KCl, 1 mM CaCl2, 1 mM MgCl2, 10 mM Na-HEPES, 10 mM glucose, 30 mM sucrose at pH 7.4, 320 mOsm. Internal solution consisted of 153 mM CsCl, 10 mM Cs-HEPES, 4 mM MgCl2, 5 mM EGTA at pH 7.35, 300 mOsm. Solutions were designed for measurement of predominantly sodium inward currents and to block NMDA receptor currents when neurons are voltage clamped at -75 mV. […] To block other currents, 0.2-1 μM tetrodotoxin (TTX), 10 μM picrotoxin, 10 nM strychnine were added to the external solution. External solution was perfused continuously at about 2 ml/min. […]

In the case of `N#Cc1cc2c(cc1[N+](=O)[O-])=NC(=O)C(=O)N=2` [CNQX, 6-cyano-7-nitro-quinoxaline-2,3-dione, reference compound], the “Antibody-evoked currents reduced to % of control” value ([1]; 40 μM, rabbit serum 1:8, 6 cells) is reported as 4±20 % of control and the “blockage of anti-GluR3 antibody-evoked currents” value [1] is reported as “rapid, reversible, and voltage independent”.
`C[C@]12N[C@H](Cc3ccccc31)c1ccccc12` [MK-801, reference compound] was tested, and the “blockage of anti-GluR3 antibody-evoked currents” value [1] was “had no effect”.
In the case of `CN[C@H](CC(=O)O)C(=O)O` [NMDA, N-methyl-D-aspartate], the “current evoked by NMDA” value [2] is reported as “No current was evoked”.
With “GluR3A: synthetic peptide, amino acids 245-274 of GluR3 (SEQ ID NO:1) (NNENPMVQQFIQRWVRLDEREFPEAKNAP)” the “blockage of currents evoked by serum from a Rasmussen's encephalitis patient” value [3] was “does not” and the “blockage of anti-GluR3 antibody-evoked currents” value [1] was “did not block antibody-evoked currents”.
